According to patent US11628179B2, “Compounds for treating and preventing extracellular histone mediated pathologies” (priority 2017, dated 2023):
Where “and” joins values, the source holds several entries; their conditions need not be identical. Equal values may be shown once.

What was measured:
human platelets = test: Histone-induced platelet aggregation; type: cell-based; conditions: compounds added prior to histones 150 μg/mL
[1] = test system: Human platelets in whole blood; test: Histone-induced platelet degranulation (ATP release); type: cell-based; conditions: compounds added prior to histones 400 μg/mL
mice = test: In-vivo histone toxicity assay, organ damage markers at 4 hr; set-up: species or system mouse; conditions: 6.25, 25 and 100 mg/kg i.p. 10 min prior to histones 50 mg/kg i.v.; blood at 4 hr
dog liver microsomes = test: Phase I metabolism in dog liver microsomes; conditions: 1 μM, 1 h incubation, NADPH, 0.3 mg/ml microsomes
Procedure: (§1) A stock concentration of 25 μM mCBS dissolved in 50% methanol in water was added to the reaction tubes (10 μL). […] Samples were then vortex-mixed and centrifuged for 10 min at 14,000 rpm. Half of the samples (375 μl) were transferred to glass tubes and evaporated under a stream of nitrogen and at 37° C. Samples were then reconstituted in mobile phase A (250 μL). The final concentration of mCBS was 1 μM in the incubation medium.
(§2) The reaction mixtures were incubated for 1 hour with sampling in triplicate at 0, 15, 30, 45 and 60 min time points. A negative control (no NADPH) was used in parallel with the study samples. A positive control; midazolam, 25 μM (10 μL) was incubated in the same condition for 1 h. The final concentration of midazolam was 1 μM in the incubation medium

rat liver microsomes = test: Phase I metabolism in rat liver microsomes; conditions: 1 μM, 1 h incubation, NADPH, 0.3 mg/ml microsomes
Procedure: as §1, §2

human liver microsomes = test: Phase I metabolism in human liver microsomes; conditions: 1 μM, 1 h incubation, NADPH, 0.3 mg/ml microsomes
Procedure: as §1, §2

[2] = Lipid bilayer assay (histone rupture of bilayers)
Procedure: Lipid bilayer assays. Artificial lipid bilayers, prepared as previously described (Rebbeck, R. T. et al. The beta (1a) subunit of the skeletal DHPR binds to skeletal RyR1 and activates the channel via its 35-residue C-terminal tail. Biophys J 100, 922-930, doi:10.1016/j.bpj.2011.01.022 (2011).), separated symmetrical 150 mM or 250 mM KCl (pH ˜5.5) solutions. Histones (1 μM, 15.2 μg ml^−1) were added to bilayers alone or after 0.5-3 h incubation with 10 μM CBS (3.5 μg ml^−1) or 10 μM MTS (5.1 μg ml^−1) at −20° C. Current was recorded continuously after histone addition until the bilayers broke or the experiment was terminated.
To examine this possibility artificial lipid bilayers were prepared and their susceptibility to histone rupture detected by changes in current across the bilayers.

[3] = mCBS vs CBS levels in bulk powder stored at −20° C. (CAD); type: physicochemical
Procedure: Table 2b compares mCBS vs CBS levels in a representative batch of bulk powder when stored at −20° C. over 24 months. T is for time in months. T=0 or T0 represents analytical results carried out on completion of manufacture. Subsequent analysis indicated are relative to the initial analysis of the drug powder or formulation (e.g. […] Analytical method employing CAD (Charged Aerosol Detector) was used to measure the level of mCBS purity and its impurities and expressed as CAD %.

[4] = mCBS vs CBS levels in phosphate buffered pH 7.5 clinical trial formulation stored at 2-8° C. (CAD); type: physicochemical
human RBCs [5] = test: Histone-induced RBC aggregation (flow cytometry autofluorescence, SEM); type: cell-based; conditions: 0-200 μg/mL added prior to 400 μg/mL histones
C57BL/6 mice = test: Murine deep vein thrombosis (DVT) model, histone-mediated; type: in vivo, mouse; conditions: CBS 50 mg/kg i.v. 5 min after histones 10 mg/kg i.v., 48 h
Procedure: Murine deep vein thrombosis (DVT) model. The procedure used is largely as previously described (see Brill, A. et al. Neutrophil extracellular traps promote deep vein thrombosis in mice. J Thromb Haemost 10, 136-144, doi: 10.1111/j.1538-7836.2011.04544.x (2012)). […] The peritoneum and skin were closed following which all mice received an i.v. injection of histones via the tail vein (10 mg kg^−1) or an equivalent volume of saline followed 5 min later by an i.v. injection of test compounds (50 mg kg^−1) or saline. Mice were monitored for 48 h after which they were re-anesthetised, re-opened and any thrombi that had developed distal to the IVC stenosis were removed for analysis. Sham operated control animals received laparotomy and 90% ligation of the IVC, however the ligation was removed immediately after occlusion of the IVC.

human RBCs [6] = test: Histone-induced RBC fragility / lysis under shear; type: cell-based; conditions: 0-200 μg/mL prior to 400 μg/mL histones 60 min; 100 mm/s, 40× repetitions
[7] = Stability of mCBS vs CBS in formulated clinical material (HPLC); type: physicochemical; conditions: formulated clinical material in phosphate buffer, 5±3° C., 25±2° C./60% RH, 40±2° C./75% RH
Procedure: Stability studies were carried out at 5±3° C., 25±2° C./60% RH and 40±2° C./75% RH ° C. conditions. Levels of both mCBS and cellobiose sulfate (CBS) were tracked in formulated clinical material (i.e. mCBS in phosphate buffer) via HPLC.

Wistar rats [8] = test: Rat caecal ligation and puncture (CLP), severe sepsis; type: in vivo
Procedure: Rat caecal ligation and puncture (CLP) assay for sepsis. The CLP assay was performed in male Wistar rats as previously described (see Hubbard, W. J. et al. Cecal ligation and puncture. Shock 24 Suppl 1, 52-57 (2005).). Test compounds (50 mg kg^−1) dissolved in saline or an equivalent volume of saline only (Control cohort) were administered i.p. 5 min pre-CLP and 5, 10 and 15 h post-op until cessation of the experiment at 20 h. Sham-CLP rats underwent the same procedure, however, the caecum was not ligated or punctured and these rats received saline at the same times as above. At the conclusion of the experimental time period (20 h) or when morbidity required ethical euthanasia, the rats were anaesthetised and blood was collected via cardiac puncture into EDTA for subsequent analysis of liver (ALT) and kidney (creatinine) function by the Department of Pathology, The Canberra Hospital. The propensity for clots to form within the blood samples of the saline treated control CLP animals (despite the presence of EDTA) prevented successful analysis of plasma samples from all animals.

Wistar rats [9] = test: Rat cardiac IRI model; type: in vivo; conditions: 30 mg kg−1 into left ventricle 5 min prior to reperfusion
Procedure: Rat cardiac IRI model. […] Male Wistar rats were anaesthetised with isofluorane, intubated via tracheostomy and ventilated with a tidal volume of 1 ml 150 g^−1 and a respiratory rate of 65 breaths min^−1. Supplemental oxygen was delivered at a FiO2 of ˜30%. A left hemi-thoracotomy was performed to enable visualisation of the left ventricle. The left coronary arterial plexus (LCA) was occluded using an atraumatic snare for 30 min prior to reperfusion for 30 min. Ischemia was confirmed by myocardial hyperaemia. The test compounds (30 mg kg^−1) or an equivalent volume (200 μl) of saline were injected into the lumen of the left ventricle (confirmed with aspiration) 5 min prior to the release of the snare for the reperfusion phase.
At the conclusion of reperfusion (30 min), Thioflavin S (1 ml 200 g^−1 of body weight) was slowly injected into the lumen of the left ventricle, to define the territory of microvascular obstruction (MVO) within the ischemic zone (IZ). The IZ territory was determined by the re-occlusion of the atraumatic snare and infusion of blue microspheres into the left ventricle (Unisperse Blue, BASF), distributed within solutions via ultrasonication using a CD-6800 (Unisonics) sonicator. […] Planimetry (Image J, Freeware) was used to quantify the areas of the IZ, MVO and necrosis.

whole blood coagulation = test: ROTEM whole blood coagulation analysis (anticoagulant effect of compounds); conditions: NATEM assay, 50 and 100 μg/mL

## O=C[C@H](O)[C@@H](O)[C@H](O[C@@H]1O[C@H](CO)[C@@H](O)[C@H](O)[C@H]1O)[C@H](O)CO [CB, cellobiose]
Human platelets
  histone-induced platelet aggregation: no inhibitory activity
[1]
  histone-induced platelet degranulation (ATP release): no inhibitory activity
mice
  protection from histone-induced organ damage (LDH, ALT, creatinine): inactive

## Cc1ncc2n1-c1ccc(Cl)cc1C(c1ccccc1F)=NC2 [midazolam]
Dog liver microsomes
  phase I metabolic stability: almost completely metabolised
Rat liver microsomes
  phase I metabolic stability: almost completely metabolised
Human liver microsomes
  phase I metabolic stability: almost completely metabolised

## cellobiose sulfate [CBS]
[2]; histones 1 μM + CBS, 3 of 52 bilayers, within 0.3 to 0.5 min
  incidence of rapid bilayer rupture: 5.8%
[2]; histones 1 μM in the presence of CBS 10 μM
  average bilayer lifetime: 18 ± 4 min and 36 ± 5 min
[3]; 24 months
  stability when stored in powder: stable
[3]; T0 (months)
  level in bulk powder: 0.23 CAD %
[3]; T1
  level in bulk powder: 0.25 CAD %
[3]; T3
  level in bulk powder: 0.28 CAD %
[3]; T6
  level in bulk powder: 0.32 CAD %
[3]; T9
  level in bulk powder: 0.36 CAD %
[3]; T12
  level in bulk powder: 0.36 CAD %
[3]; T18
  level in bulk powder: 0.36 CAD %
[3]; T24
  level in bulk powder: 0.29 CAD %
Human platelets
  histone-induced platelet aggregation: significantly reduced
[1]
  histone-induced platelet degranulation (ATP release): significantly reduced
[4]; 2-8° C., T0 (months)
  level in phosphate buffered pH 7.5 formulation: 0.25 CAD %
[4]; 2-8° C., T2
  level in phosphate buffered pH 7.5 formulation: 0.03 CAD %
[4]; 2-8° C., T3
  level in phosphate buffered pH 7.5 formulation: 0.07 CAD %
[4]; 2-8° C., T7
  level in phosphate buffered pH 7.5 formulation: 0.03 CAD %
[4]; 2-8° C., T10
  level in phosphate buffered pH 7.5 formulation: 0.04 CAD %
[4]; 2-8° C., T13
  level in phosphate buffered pH 7.5 formulation: 0.04 CAD %
[4]; 2-8° C., T19
  level in phosphate buffered pH 7.5 formulation: <0.03 CAD %
[4]; 2-8° C., over 18 months
  stability when stored in aqueous buffered solution: highly unstable
[4]; aqueous buffered solution, within 3-6 month of storage at 2-8° C.
  level reduced to (detection limit): 0.03 CAD %
mice
  protection from histone-induced organ damage (LDH, ALT, creatinine): protects animals from histone-mediated injury
Human RBCs [5]
  inhibition of histone-induced RBC aggregation: inhibit histone-induced RBC aggregation in a dose dependent manner
C57BL/6 mice
  histone-mediated deep vein thrombosis: almost totally inhibited
Human RBCs [6]
  inhibition of histone-induced RBC lysis under shear: inhibit histone-induced lysis under shear in a dose-dependent manner
[7]
  level relative to starting amount (T=0) over time: drops very rapidly and is almost gone by around 3 months
Wistar rats [8]; CBS treated animals
  high ALT and creatinine levels (liver and kidney damage): not seen
Wistar rats [8]; CBS treatment group vs controls
  mortality: no mortalities
Wistar rats [9]
  area of microvascular obstruction: significantly reduced
  reduction of myocardial necrosis in the ischemic zone: 50%

## melezitose sulfate
Whole blood coagulation
  clot formation: No clotting was detected
Whole blood coagulation; listed as melezitose
  clot formation: no clot was detected
